Experiments:
[1] = test system: SMN2 minigene mRNA (SMN2-A minigene) in HEK293H cells; experiment: SMN2 minigene mRNA splicing RT-qPCR assay in cultured cells; format: cell-based, human; conditions: Homo sapiens, HEK293-H; concentration increasing full length SMN2 mRNA 1.5-fold relative to vehicle-treated cells; HEK293H cells with SMN2-A minigene, 24 hours, 7-point concentration data; read-out: EC1.5x for production of full length SMN2 mRNA
Method in brief: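 Potency reflects the concentration that lifts full-length SMN2 minigene mRNA 1.5-fold above vehicle in stably transfected HEK293H cells after 24 h of treatment. Transcript abundance came from RT-qPCR as (1+E)^−Ct, normalized to GAPDH; endogenous SMN1/SMN2 are not detected.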

[2] = test system: Smn protein in SMA patient fibroblast cells (GM03813); experiment: Smn protein assay in cultured cells (SMN HTRF); format: cell-based, human; conditions: SMA patient fibroblast cells, 48 hours; for EC1.5x for Smn protein expression: 7-point concentration curve, SMN HTRF, concentration producing 1.5 times Smn protein vs DMSO vehicle control; for maximum fold (Fold) increase of Smn protein: 7-point concentration data, fold relative to vehicle control
Method in brief: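 Smn protein abundance in treated SMA fibroblasts was measured by HTRF after 48 h compound exposure. The reported EC1.5× is the concentration producing 1.5 times vehicle Smn levels.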

Structure (SMILES) | EC (1.5-fold increase) [1] | melting point | EC1.5x for Smn protein expression [2] | maximum fold (Fold) increase of Smn protein [2]
COc1ccc(-c2cc(=O)n3cc(N4CCNCC4)ccc3n2)cc1C(F)(F)F [Compound 67, 2-[4-methoxy-3-(trifluoromethyl)phenyl]-7-(piperazin-1-yl)-4H-pyrido[1,2-a]pyrimidin-4-one] | 0.1 to 0.3 µM | 177 to 181 °C | *** (an EC1.5× between >0.3 μM and ≤1 μM is indicated by three stars (***)) | *** (a fold increase between >1.35 and ≤1.5 is indicated by three stars (***))
COc1ccc(-c2cc(=O)n3cc(N4CCN[C@H](C)C4)ccc3n2)cc1C(F)(F)F [Compound 68, 2-[4-methoxy-3-(trifluoromethyl)phenyl]-7-[(3R)-3-methylpiperazin-1-yl]-4H-pyrido[1,2-a]pyrimidin-4-one] | 0.1 to 0.3 µM | 205 to 212 °C |  | ** (a fold increase between >1.2 and ≤1.35 is indicated by two stars (**))
COc1ccc(-c2cc(=O)n3cc(N4CCN[C@@H](C)C4)ccc3n2)cc1C(F)(F)F [Compound 69, 2-[4-methoxy-3-(trifluoromethyl)phenyl]-7-[(3S)-3-methylpiperazin-1-yl]-4H-pyrido[1,2-a]pyrimidin-4-one] | 0.3 to 1 µM | 195 to 200 °C | *** (an EC1.5× between >0.3 μM and ≤1 μM is indicated by three stars (***)) | **** (a fold increase between >1.5 and ≤1.65 is indicated by four stars (****))
N#Cc1ccc(-c2cc(=O)n3cc(N4CCNCC4)ccc3n2)cc1 [Compound 73, 4-[4-oxo-7-(piperazin-1-yl)-4H-pyrido[1,2-a]pyrimidin-2-yl]benzonitrile] | 3 to 30 µM | 146 to 151 °C |  | ** (a fold increase between >1.2 and ≤1.35 is indicated by two stars (**))
Cc1cn2cc(-c3cc(=O)n4cc(N5CCN[C@@H](C)C5)ccc4n3)nc2cn1 [Compound 75, 2-(6-methylimidazo[1,2-a]pyrazin-2-yl)-7-[(3S)-3-methylpiperazin-1-yl]-4H-pyrido[1,2-a]pyrimidin-4-one] | < 0.1 µM | 235 to 238 °C | **** (an EC1.5x≤0.3 μM is indicated by four stars (****)) | ***** (a fold increase >1.65 is indicated by five stars (*****))
O=c1cc(-c2ccc(F)c(C(F)(F)F)c2)nc2ccc(N3CCNCC3)cn12 [Compound 77, 2-[4-fluoro-3-(trifluoromethyl)phenyl]-7-(piperazin-1-yl)-4H-pyrido[1,2-a]pyrimidin-4-one] | 0.3 to 1 µM | 214 to 217 °C |  | ** (a fold increase between >1.2 and ≤1.35 is indicated by two stars (**))
COc1c(-c2cc(=O)n3cc(N4CCNCC4)ccc3n2)cccc1C(F)(F)F [Compound 78, 2-[2-methoxy-3-(trifluoromethyl)phenyl]-7-(piperazin-1-yl)-4H-pyrido[1,2-a]pyrimidin-4-one] | 1 to 3 µM | 194 to 200 °C |  | * (A maximum fold increase of ≤1.2 is indicated by one star (*))
O=c1cc(-c2cc(F)cc(F)c2)nc2ccc(N3CCNCC3)cn12 [Compound 79, 2-(3,5-difluorophenyl)-7-(piperazin-1-yl)-4H-pyrido[1,2-a]pyrimidin-4-one] | 0.1 to 0.3 µM | 195 to 198 °C | *** (an EC1.5× between >0.3 μM and ≤1 μM is indicated by three stars (***)) | **** (a fold increase between >1.5 and ≤1.65 is indicated by four stars (****))
O=c1cc(-c2cccc(OC(F)(F)F)c2)nc2ccc(N3CCNCC3)cn12 [Compound 80, 7-(piperazin-1-yl)-2-[3-(trifluoromethoxy)phenyl]-4H-pyrido[1,2-a]pyrimidin-4-one] | 1 to 3 µM | 140 to 143 °C |  | * (A maximum fold increase of ≤1.2 is indicated by one star (*))
COc1ccc(-c2cc(=O)n3cc(N4CCN[C@@H](C)C4)ccc3n2)cc1OC(F)(F)F [Compound 83, 2-[4-methoxy-3-(trifluoromethoxy)phenyl]-7-[(3S)-3-methylpiperazin-1-yl]-4H-pyrido[1,2-a]pyrimidin-4-one] | 0.3 to 1 µM | 176 to 178 °C |  | * (A maximum fold increase of ≤1.2 is indicated by one star (*))
C[C@H]1CN(c2ccc3nc(-c4ccc(O)c(OC(F)(F)F)c4)cc(=O)n3c2)CCN1 [Compound 84, 2-[4-hydroxy-3-(trifluoromethoxy)phenyl]-7-[(3S)-3-methylpiperazin-1-yl]-4H-pyrido[1,2-a]pyrimidin-4-one] | 1 to 3 µM | 152 to 155 °C | ** (an EC1.5× between >1 μM and ≤3 μM is indicated by two stars (**)) | ***** (a fold increase >1.65 is indicated by five stars (*****))
COc1ccc(-c2cc(=O)n3cc(N4CCN[C@H](C)C4)ccc3n2)cc1F [Compound 86, 2-(3-fluoro-4-methoxyphenyl)-7-[(3R)-3-methylpiperazin-1-yl]-4H-pyrido[1,2-a]pyrimidin-4-one] | 0.1 to 0.3 µM | 175 to 178 °C | **** (an EC1.5x≤0.3 μM is indicated by four stars (****)) | **** (a fold increase between >1.5 and ≤1.65 is indicated by four stars (****))
COc1ccc(-c2cc(=O)n3cc(N4CCN[C@@H](C)C4)ccc3n2)cc1F [Compound 87, 2-(3-fluoro-4-methoxyphenyl)-7-[(3S)-3-methylpiperazin-1-yl]-4H-pyrido[1,2-a]pyrimidin-4-one] | 0.1 to 0.3 µM | 175 to 178 °C | *** (an EC1.5× between >0.3 μM and ≤1 μM is indicated by three stars (***)) | **** (a fold increase between >1.5 and ≤1.65 is indicated by four stars (****))
COc1ccc(-c2cc(=O)n3cc(N4CCNCC4)ccc3n2)cn1 [Compound 88, 2-(6-methoxypyridin-3-yl)-7-(piperazin-1-yl)-4H-pyrido[1,2-a]pyrimidin-4-one] | 1 to 3 µM | 173 to 178 °C |  | ** (a fold increase between >1.2 and ≤1.35 is indicated by two stars (**))
COc1ccc(-c2cc(=O)n3cc(N4CCNCC4)ccc3n2)c(OC)c1 [Compound 89, 2-(2,4-dimethoxyphenyl)-7-(piperazin-1-yl)-4H-pyrido[1,2-a]pyrimidin-4-one] | 1 to 3 µM | 171 to 173 °C |  | *** (a fold increase between >1.35 and ≤1.5 is indicated by three stars (***))
COc1ccc(-c2cc(=O)n3cc(N4CCN[C@@H](C)C4)ccc3n2)c(OC)c1 [Compound 90, 2-(2,4-dimethoxyphenyl)-7-[(3S)-3-methylpiperazin-1-yl]-4H-pyrido[1,2-a]pyrimidin-4-one] | 1 to 3 µM | 172 to 177 °C | * (An EC1.5× for Smn protein expression between >3 μM and ≤10 μM is indicated by one star (*)) | *** (a fold increase between >1.35 and ≤1.5 is indicated by three stars (***))
C[C@H]1CN(c2ccc3nc(-c4cncc(F)c4)cc(=O)n3c2)CCN1 [Compound 93, 2-(5-fluoropyridin-3-yl)-7-[(3S)-3-methylpiperazin-1-yl]-4H-pyrido[1,2-a]pyrimidin-4-one] | 1 to 3 µM | 191 to 199 °C |  | ** (a fold increase between >1.2 and ≤1.35 is indicated by two stars (**))
O=c1cc(-c2cncc(Cl)c2)nc2ccc(N3CCNCC3)cn12 [Compound 94, 2-(5-chloropyridin-3-yl)-7-(piperazin-1-yl)-4H-pyrido[1,2-a]pyrimidin-4-one] | 1 to 3 µM | 208 to 218 °C |  | *** (a fold increase between >1.35 and ≤1.5 is indicated by three stars (***))
C[C@H]1CN(c2ccc3nc(-c4cncc(Cl)c4)cc(=O)n3c2)CCN1 [Compound 95, 2-(5-chloropyridin-3-yl)-7-[(3S)-3-methylpiperazin-1-yl]-4H-pyrido[1,2-a]pyrimidin-4-one] | 1 to 3 µM | 227 to 232 °C | ** (an EC1.5× between >1 μM and ≤3 μM is indicated by two stars (**)) | **** (a fold increase between >1.5 and ≤1.65 is indicated by four stars (****))
COc1ncc(-c2cc(=O)n3cc(N4CCNCC4)ccc3n2)cc1Cl [Compound 96, 2-(5-chloro-6-methoxypyridin-3-yl)-7-(piperazin-1-yl)-4H-pyrido[1,2-a]pyrimidin-4-one] | 0.3 to 1 µM | 201 to 209 °C | *** (an EC1.5× between >0.3 μM and ≤1 μM is indicated by three stars (***)) | **** (a fold increase between >1.5 and ≤1.65 is indicated by four stars (****))
